Settings: 333.15 K, Liquid, Vibrating tube method

FC(C(F)(F)F)C(F)(F)F [1,1,1,2,3,3,3-heptafluoropropane]
Settings	mass density [kg/m3]
14224 kPa	1356.7
14266 kPa	1357
14291 kPa	1357.2
14328 kPa	1357.4
14371 kPa	1357.7
14400 kPa	1357.8
14435 kPa	1358.2
14458 kPa	1358.3
14483 kPa	1358.5
14514 kPa	1358.6
14545 kPa	1358.8
14575 kPa	1359.1
14609 kPa	1359.3
14631 kPa	1359.4
14665 kPa	1359.7
14691 kPa	1359.8
14717 kPa	1360
14746 kPa	1360.2
14768 kPa	1360.3
14798 kPa	1360.5
15205 kPa	1363.1
15236 kPa	1363.4
15290 kPa	1363.8
15717 kPa	1366.6
15745 kPa	1366.7
15780 kPa	1366.8
15812 kPa	1367.1
15836 kPa	1367.2
15868 kPa	1367.4
15899 kPa	1367.6
15926 kPa	1367.8
16438 kPa	1370.9
16464 kPa	1371.3
16489 kPa	1371.4
16519 kPa	1371.5
16626 kPa	1372.2
16683 kPa	1372.5
16707 kPa	1372.8
16730 kPa	1372.7
16761 kPa	1373
17906 kPa	1379.9
17932 kPa	1379.9
17962 kPa	1380.3
17993 kPa	1380.3
18015 kPa	1380.5
18050 kPa	1380.7
18080 kPa	1380.9
18108 kPa	1381
19508 kPa	1388.9
19537 kPa	1389
19563 kPa	1389.2
19597 kPa	1389.4
19624 kPa	1389.6
19650 kPa	1389.8
19677 kPa	1389.8
20749 kPa	1395.7
20777 kPa	1395.9
20814 kPa	1396
20842 kPa	1396.2
20873 kPa	1396.4
20901 kPa	1396.5
20931 kPa	1396.6
20957 kPa	1396.9
20979 kPa	1396.9
21008 kPa	1397
21033 kPa	1397.1
21063 kPa	1397.3
21088 kPa	1397.5
21120 kPa	1397.5
21148 kPa	1397.8
21172 kPa	1397.9
21205 kPa	1398
21229 kPa	1398.2
21270 kPa	1398.3
21296 kPa	1398.6
21327 kPa	1398.7
21360 kPa	1398.9
21397 kPa	1399.2
21645 kPa	1400.3
21675 kPa	1400.5
21704 kPa	1400.7
21740 kPa	1400.8
21764 kPa	1401
21831 kPa	1401.4
21897 kPa	1401.7
21932 kPa	1401.8
22798 kPa	1406.2
22829 kPa	1406.3
22856 kPa	1406.5
22880 kPa	1406.7
22918 kPa	1406.7
22954 kPa	1407
23854 kPa	1411.4
25147 kPa	1417.6
25181 kPa	1417.7
25224 kPa	1417.9
25251 kPa	1417.9
25279 kPa	1418.1
25312 kPa	1418.3
25354 kPa	1418.4
25387 kPa	1418.6
25415 kPa	1418.7
26099 kPa	1421.9
26128 kPa	1422
26167 kPa	1422.2
26201 kPa	1422.2
26234 kPa	1422.6
26257 kPa	1422.6
26527 kPa	1423.9
26563 kPa	1423.8
26596 kPa	1424.2
26625 kPa	1424.4
26654 kPa	1424.4
26692 kPa	1424.5
26726 kPa	1424.8
26760 kPa	1424.8
26801 kPa	1425
26831 kPa	1425.1
26860 kPa	1425.4
26889 kPa	1425.4
26914 kPa	1425.6
26943 kPa	1425.8
26972 kPa	1425.8
26999 kPa	1425.9
27023 kPa	1426
27056 kPa	1426.1
27081 kPa	1426.2
27119 kPa	1426.4
27151 kPa	1426.6
27180 kPa	1426.6
27621 kPa	1428.6
27651 kPa	1428.9
27681 kPa	1428.9
27707 kPa	1428.9
27750 kPa	1429.2
27783 kPa	1429.3
27818 kPa	1429.5
27852 kPa	1429.7
27890 kPa	1429.9
27916 kPa	1430
27950 kPa	1430.1
27975 kPa	1430.2
28484 kPa	1432.4
28514 kPa	1432.5
28543 kPa	1432.6
28577 kPa	1432.8
28602 kPa	1432.9
28633 kPa	1433
28668 kPa	1433.1
28698 kPa	1433.3
28730 kPa	1433.3
28761 kPa	1433.5
28792 kPa	1433.6
28833 kPa	1433.9
28866 kPa	1434
28892 kPa	1434.1
28917 kPa	1434.2
28956 kPa	1434.4
28982 kPa	1434.4
29008 kPa	1434.6
29042 kPa	1434.7
29069 kPa	1434.8
29104 kPa	1434.9
29132 kPa	1435.2
29171 kPa	1435.3
29206 kPa	1435.5
29233 kPa	1435.5
29267 kPa	1435.7
29293 kPa	1435.7
29326 kPa	1435.9
29364 kPa	1436.1
29400 kPa	1436.2
29434 kPa	1436.4
29694 kPa	1437.4
29758 kPa	1437.7
30086 kPa	1439
30149 kPa	1439.4
30189 kPa	1439.6
30299 kPa	1440
30336 kPa	1440.1
30372 kPa	1440.3
30402 kPa	1440.3
30439 kPa	1440.7
30461 kPa	1440.7
30493 kPa	1440.8
30521 kPa	1440.9
30557 kPa	1441.1
30586 kPa	1441.1
30623 kPa	1441.3
30650 kPa	1441.3
30690 kPa	1441.5
30717 kPa	1441.7
30753 kPa	1441.8
30780 kPa	1441.9
30816 kPa	1442.1
30843 kPa	1442
30884 kPa	1442.3
30925 kPa	1442.4
32911 kPa	1450.4
32943 kPa	1450.4
32981 kPa	1450.6
33028 kPa	1450.9
33066 kPa	1451
33093 kPa	1451.1
33132 kPa	1451.1

— the NIST ThermoML archive (doi:10.1021/je700260f)
